Laboratory results taken from patent US11019818B2, “Herbicidal 3-substituted lactams” (FMC Corporation, priority 2017, dated 2021).

Key:
Format in all cases: in vivo
[1] = test system: barnyardgrass (Echinochloa crus-galli); experiment: Test A postemergence, barnyardgrass; conditions: 0 to 100 scale (0 no effect, 100 complete control), approx. 10 d
Source text: (§1) Seeds of plant species selected from barnyardgrass (Echinochloa crus-galli), kochia (Kochia scoparia), ragweed (common ragweed, Ambrosia elatior), ryegrass, Italian (Italian ryegrass, Lolium multiflorum), foxtail, green (green foxtail, Setaria viridis), and pigweed (Amaranthus retroflexus) were planted into a blend of loam soil and sand and treated preemergence with a directed soil spray using test chemicals formulated in a non-phytotoxic solvent mixture which included a surfactant. At the same time, plants selected from these weed species and also wheat (Triticum aestivum), corn (Zea mays), blackgrass (Alopecurus myosuroides), and galium (catchweed bedstraw, Galium aparine) were planted in pots containing the same blend of loam soil and sand and treated with postemergence applications of test chemicals formulated in the same manner. Plants ranged in height from 2 to 10 cm and were in the one- to two-leaf stage for the postemergence treatment. Treated plants and untreated controls were maintained in a greenhouse for approximately 10 d, after which time all treated plants were compared to untreated controls and visually evaluated for injury. Plant response ratings, summarized in Table A, are based on a 0 to 100 scale where 0 is no effect and 100 is complete control. A dash (-) response means no test result.

[2] = test system: kochia (Kochia scoparia); experiment: Test A postemergence, kochia; conditions: 0 to 100 scale (0 no effect, 100 complete control), approx. 10 d
Source text: as §1

[3] = test system: ragweed (common ragweed, Ambrosia elatior); experiment: Test A postemergence, ragweed; conditions: 0 to 100 scale (0 no effect, 100 complete control), approx. 10 d
Source text: as §1

[4] = test system: ryegrass, Italian (Italian ryegrass, Lolium multiflorum); experiment: Test A postemergence, Italian ryegrass; conditions: 0 to 100 scale (0 no effect, 100 complete control), approx. 10 d
Source text: as §1

[5] = test system: foxtail, green (green foxtail, Setaria viridis); experiment: Test A postemergence, green foxtail; conditions: 0 to 100 scale (0 no effect, 100 complete control), approx. 10 d
Source text: as §1

[6] = test system: pigweed (Amaranthus retroflexus); experiment: Test A postemergence, pigweed; conditions: 0 to 100 scale (0 no effect, 100 complete control), approx. 10 d
Source text: as §1

[7] = test system: wheat (Triticum aestivum); experiment: Test A postemergence, wheat; conditions: 0 to 100 scale (0 no effect, 100 complete control), approx. 10 d
Source text: as §1

[8] = test system: corn (Zea mays); experiment: Test A postemergence, corn; conditions: 0 to 100 scale (0 no effect, 100 complete control), approx. 10 d
Source text: as §1

[9] = test system: blackgrass (Alopecurus myosuroides); experiment: Test A postemergence, blackgrass; conditions: 0 to 100 scale (0 no effect, 100 complete control), approx. 10 d
Source text: as §1

[10] = test system: galium (catchweed bedstraw, Galium aparine); experiment: Test A postemergence, galium; conditions: 0 to 100 scale (0 no effect, 100 complete control), approx. 10 d
Source text: as §1

[11] = test system: barnyardgrass (Echinochloa crus-galli); experiment: Test A preemergence, barnyardgrass; conditions: 0 to 100 scale (0 no effect, 100 complete control), approx. 10 d
Source text: as §1

[12] = test system: kochia (Kochia scoparia); experiment: Test A preemergence, kochia; conditions: 0 to 100 scale (0 no effect, 100 complete control), approx. 10 d
Source text: as §1

[13] = test system: ragweed (common ragweed, Ambrosia elatior); experiment: Test A preemergence, ragweed; conditions: 0 to 100 scale (0 no effect, 100 complete control), approx. 10 d
Source text: as §1

[14] = test system: ryegrass, Italian (Italian ryegrass, Lolium multiflorum); experiment: Test A preemergence, Italian ryegrass; conditions: 0 to 100 scale (0 no effect, 100 complete control), approx. 10 d
Source text: as §1

[15] = test system: foxtail, green (green foxtail, Setaria viridis); experiment: Test A preemergence, green foxtail; conditions: 0 to 100 scale (0 no effect, 100 complete control), approx. 10 d
Source text: as §1

[16] = test system: pigweed (Amaranthus retroflexus); experiment: Test A preemergence, pigweed; conditions: 0 to 100 scale (0 no effect, 100 complete control), approx. 10 d
Source text: as §1

[17] = test system: barnyardgrass (Echinochloa crus-galli); experiment: Test B flooded paddy test, barnyardgrass; conditions: Flood, 250 g ai/ha; applied to paddy water at 2-leaf stage; visual rating after 13 to 15 d; scale 0 to 100, 0 is no effect, 100 is complete control
Protocol: (§2) Plant species in the flooded paddy test selected from rice (Oryza sativa), sedge, umbrella (small-flower umbrella sedge, Cyperus difformis), ducksalad (Heteranthera limosa), and barnyardgrass (Echinochloa crus-galli) were grown to the 2-leaf stage for testing. At time of treatment, test pots were flooded to 3 cm above the soil surface, treated by application of test compounds directly to the paddy water, and then maintained at that water depth for the duration of the test. Treated plants and controls were maintained in a greenhouse for 13 to 15 d, after which time all species were compared to controls and visually evaluated. Plant response ratings, summarized in Table B, are based on a scale of 0 to 100 where 0 is no effect and 100 is complete control. A dash (-) response means no test result.

[18] = test system: ducksalad (Heteranthera limosa); experiment: Test B flooded paddy test, ducksalad; conditions: Flood, 250 g ai/ha; applied to paddy water at 2-leaf stage; visual rating after 13 to 15 d; scale 0 to 100, 0 is no effect, 100 is complete control
Protocol: as §2

[19] = test system: rice (Oryza sativa); experiment: Test B flooded paddy test, rice; conditions: Flood, 250 g ai/ha; applied to paddy water at 2-leaf stage; visual rating after 13 to 15 d; scale 0 to 100, 0 is no effect, 100 is complete control
Protocol: as §2

[20] = test system: sedge, umbrella (small-flower umbrella sedge, Cyperus difformis); experiment: Test B flooded paddy test, umbrella sedge; conditions: Flood, 250 g ai/ha; applied to paddy water at 2-leaf stage; visual rating after 13 to 15 d; scale 0 to 100, 0 is no effect, 100 is complete control
Protocol: as §2

CC(=O)[C@@]1(C(=O)Nc2cccc(F)c2F)C(=O)N(C)C[C@@H]1c1ccc(C(F)(F)F)cc1 [Compound 1, (3S,4R)-3-acetyl-N-(2,3-difluorophenyl)-1-methyl-2-oxo-4-[4-(trifluoromethyl)phenyl]-3-pyrrolidinecarboxamide]
70: Plant response rating, Barnyardgrass ([1]; 31 g ai/ha) | Plant response rating, Kochia ([2]; 125 g ai/ha) | Plant response rating, Ragweed ([13]; 125 g ai/ha) | Plant response rating, Barnyardgrass [17]
20: Plant response rating, Kochia ([2]; 31 g ai/ha) | Plant response rating, Wheat ([7]; 31 g ai/ha) | Plant response rating, Corn ([8]; 31 g ai/ha) | Plant response rating, Ragweed ([13]; 31 g ai/ha)
60: Plant response rating, Ryegrass, Italian ([4]; 31 g ai/ha) | Plant response rating, Galium ([10]; 125 g ai/ha) | Plant response rating, Ryegrass, Italian ([14]; 125 g ai/ha)
90: Plant response rating, Barnyardgrass ([1]; 125 g ai/ha) | Plant response rating, Foxtail, Green ([5]; 125 g ai/ha) | Plant response rating, Barnyardgrass ([11]; 125 g ai/ha) | Plant response rating, Foxtail, Green ([15]; 31 g ai/ha) | Plant response rating, Foxtail, Green ([15]; 125 g ai/ha) | Plant response rating, Pigweed ([16]; 125 g ai/ha) | Plant response rating, Ducksalad [18]
0: Plant response rating, Ragweed ([3]; 31 g ai/ha) | Plant response rating, Blackgrass ([9]; 31 g ai/ha) | Plant response rating, Rice [19] | Plant response rating, Sedge, Umbrella [20]
30: Plant response rating, Pigweed ([6]; 31 g ai/ha) | Plant response rating, Ryegrass, Italian ([14]; 31 g ai/ha)
80: Plant response rating, Ryegrass, Italian ([4]; 125 g ai/ha) | Plant response rating, Pigweed ([6]; 125 g ai/ha) | Plant response rating, Corn ([8]; 125 g ai/ha) | Plant response rating, Barnyardgrass ([11]; 31 g ai/ha) | Plant response rating, Kochia ([12]; 125 g ai/ha)
50: Plant response rating, Foxtail, Green ([5]; 31 g ai/ha) | Plant response rating, Wheat ([7]; 125 g ai/ha) | Plant response rating, Blackgrass ([9]; 125 g ai/ha) | Plant response rating, Galium ([10]; 31 g ai/ha) | Plant response rating, Pigweed ([16]; 31 g ai/ha)
40: Plant response rating, Ragweed ([3]; 125 g ai/ha) | Plant response rating, Kochia ([12]; 31 g ai/ha)
